Results from patent publication US9884065B2, “Inhibiting activity of senescent cells using a glucocorticoid” (Buck Institute for Research on Aging, priority 2011, dated 2018).
Entries after “also recorded” stand apart in the source; their conditions may differ.

What was measured:
senescent cells [1] = assay: Detection and clearance of senescent cells in irradiated p16-3MR transgenic mice (rLUC bioluminescence, SASP biomarker RNA); format: in vivo, mouse
Method: Briefly, a group of p16-3MR transgenic mice were exposed to whole body ionizing radiation (7 Gy X-ray) and a control group of p16-3MR transgenic mice were mock-irradiated. After three months, the mice were treated with GCV (25 mg/kg) or vehicle only, and then at least two weeks later bioluminescence in tissues was examined after administering the rLUC substrate.

B16 mouse melanoma cells [2] = assay: B16 melanoma tail-vein injection in irradiated p16-3MR mice (primary tumors and metastases, fLUC bioluminescence); format: in vivo
Method: Briefly, 10^6 B16 mouse melanoma cells, a highly aggressive cell line that is syngeneic with p16-3MR transgenic mice (C57B16 background), that express firefly luciferase (fLUC, to enable their detection by bioluminescence) were injected into the tail vein of the p16-3MR transgenic mice approximately three months after being either mock irradiated or irradiated, as described in Example 2. Irradiated mice were treated daily with GCV (25 mg/kg) or vehicle only for 7 days, and then 3 days following the last GCV dose, B16 mouse melanoma cells were injected into the mice. B16 mouse melanoma cells first colonize the lung, where they form primary tumors approximately two weeks after injection, and thereafter metastasize to distal tissues to form secondary tumors in, for example, the pancreas, liver and visceral fat. The bioluminescence markers, fLUC and rLUC are distinguishable because the enzymes use different substrates.

B16 mouse melanoma cells [3] = assay: Subcutaneous B16 melanoma in doxorubicin-treated p16-3MR mice; format: in vivo; conditions: for p16INK4a and mRFP expression in skin biopsies / tumor diameters: doxorubicin 10 mg/kg with or without GCV; for tumor diameters / growth/size of subcutaneous B16 melanoma tumors: 12 days after B16 injection; for growth/size of subcutaneous B16 melanoma tumors: doxorubicin 10 mg/kg, GCV 25 mg/kg daily for 7 days starting 7 days later
Method: Briefly, p16-3MR transgenic mice were treated with vehicle (ctrl) or 10 mg/kg doxorubicin. Seven days after doxorubicin treatment, mice were treated daily with GCV (25 mg/kg) for 7 days or vehicle only. 3 days after the last GCV treatment, 4×10^5 B16 mouse melanoma cells were injected subcutaneously into the p16-3MR transgenic mice, and mice were sacrificed after 12 days for analysis.

senescent cells [4] = assay: Doxorubicin-induced senescent cells in tissues of p16-3MR mice (mRFP and p16INK4a mRNA); format: in vivo, mouse; conditions: doxorubicin 10 mg/kg vs untreated control mice
From the text: Similar results were observed when the senescent cell accumulation was induced with the chemotherapeutic agent, doxorubicin. […] Various tissues were isolated (liver, heart, lung, kidney, and spleen) and measured for abundance of mRNAs encoding mRFP and p16INK4a as markers for senescent cells (see FIGS. 5A and 5B, respectively).

IL-6 = assay: Initial drug screen (Prestwick Chemical Library), IL-6 ELISA of medium; format: cell-based, human; conditions: 2.5 μM, 48 hours, HCA2 fibroblasts, 0.2% serum
Method: The initial drug screen was performed in a 96-well format using automated liquid handling with a Biomek FX (Beckman Coulter, CA). Senescent cells were plated 24 hours after X-irradiation at 7,500 cells per well in 96-well plates. Six days after plating the senescent cells, the pre-senescent cells were plated at 7,500 cells per well in 96-well plates. Twenty-four hours after pre-senescent plating, both pre-senescent and senescent cells were washed and incubated in low (0.2%) serum for 48 hours to arrest cell proliferation of the pre-senescent cells. […] Forty-eight hours after compound addition, the medium in each well was removed and frozen for assay by ELISA to quantitate the levels of IL-6. The cells, which remained in the wells after the medium was removed, were lysed and ATP levels were measured (ATPlite 1-step assay, Perkin Elmer, MA) to exclude compounds that lowered IL-6 through toxicity (cell death). Experimental wells in each plate were normalized to plate mean or same-plate DMSO controls for the ELISA and ATP assays, respectively.
To identify small molecules that may be potential SASP modulators, a screening strategy that entailed administering compounds to parallel 96-well plates containing human fibroblasts (strain HCA2) that were either quiescent or senescent was developed. […] After 48 hours, the medium from each well was removed, and the cells were lysed. […] Cell lysates were assayed for ATP as a surrogate for cell number.

HCA2 human fibroblasts = conditions: 2.5 μM, 48 hours
Method: The initial drug screen was performed in a 96-well format using automated liquid handling with a Biomek FX (Beckman Coulter, CA). Senescent cells were plated 24 hours after X-irradiation at 7,500 cells per well in 96-well plates. Six days after plating the senescent cells, the pre-senescent cells were plated at 7,500 cells per well in 96-well plates. Twenty-four hours after pre-senescent plating, both pre-senescent and senescent cells were washed and incubated in low (0.2%) serum for 48 hours to arrest cell proliferation of the pre-senescent cells. Drugs from the Prestwick Chemical Library, which contains 1120 bio-available compounds in DMSO, were given to the cells at 2.5 μM in media containing 0.2% serum. Forty-eight hours after compound addition, the medium in each well was removed and frozen for assay by ELISA to quantitate the levels of IL-6. The cells, which remained in the wells after the medium was removed, were lysed and ATP levels were measured (ATPlite 1-step assay, Perkin Elmer, MA) to exclude compounds that lowered IL-6 through toxicity (cell death). Experimental wells in each plate were normalized to plate mean or same-plate DMSO controls for the ELISA and ATP assays, respectively.
To identify small molecules that may be potential SASP modulators, a screening strategy that entailed administering compounds to parallel 96-well plates containing human fibroblasts (strain HCA2) that were either quiescent or senescent was developed. The compounds tested comprised the Prestwick Chemical Library, a collection of approximately 1,120 Federal Drug Administration-approved drugs. The compounds were added to duplicate wells at a single concentration (2.5 μM). After 48 hours, the medium from each well was removed, and the cells were lysed. […] Cell lysates were assayed for ATP as a surrogate for cell number.

SASP = assay: Multiplex ELISA of conditioned media from irradiated IMR90 fibroblasts (50 cytokines and growth factors); format: cell-based, human; conditions: 10 μM apigenin immediately after irradiation, analyzed 6 days later; less than 2 fold not considered significant
Method: To determine whether or to what extent apigenin suppressed the entire SASP, multiplex ELISA was used to interrogate the relative secretion of 50 cytokines and growth factors. IMR90 fibroblasts were treated with 10 μM apigenin or DMSO immediately after irradiation and analyzed 6 days later. Cells were washed and incubated in serum-free media without apigenin to generate conditioned media. Conditioned media from […], apigenin- or DMSO-treated irradiated IMR90 cells and control (mock-irradiated, DMSO-treated) cells were analyzed by ELISA for various SASP factors (FIG. 19).

[5] = system: K-Ras induced lung tumors; assay: K-Ras mediated lung tumorigenesis in INK-ATTAC:K-RasLA1 mice; format: in vivo, mouse; parameters: dose or concentration left out as unconfirmed; conditions: INK-ATTAC3:K-RasLA1 and INK-ATTAC5:K-RasLA1 mice, from three weeks of age; 21 days after treatment
From the text: Briefly, INK-ATTAC (p16^Ink4a apoptosis through targeted activation of caspase) transgenic mice have an FK506-binding protein (FKBP)-caspase 8 (Casp8) fusion polypeptide under the control of the p16^Ink4a promoter (see FIG. 10 providing a vector sequence for the transgene and FIG. 11 providing sequences for components of the transgene including the promoter sequence). In the presence of AP20187, a synthetic drug that induces dimerization of a membrane bound myristoylated FKBP-Casp8 fusion protein, senescent cells specifically expressing the FKBP-Casp8 fusion protein via the p16^Ink4a promoter undergo programmed cell death (apoptosis) (see, e.g., Baker, Nature, supra, FIG. 1 therein). Two founder lines (INK-ATTAC^3 and INK-ATTAC^5) were each bred with the K-rasLA1 tumor model. […]
Two INK-ATTAC:K-RasLA1 were produced (one for INK-ATTAC line 3 and one for line 5). […] Twenty one days after treatment, the mice were sacrificed and tumor multiplicity in lungs was measured. […] In addition, metastasis and overall survival will be monitored after tumor induction in the presence or absence of p16-positive cells.

[6] = irradiated + GCV, eighteen days after injection

Nc1nc(O)c2ncn(COC(CO)CO)c2n1 [GCV, ganciclovir]
rLUC expression levels (bioluminescence in tissues) (senescent cells [1]; irradiated (7 Gy) p16-3MR mice, GCV 25 mg/kg three months after irradiation, lung tissue shown): comparable to unirradiated mice
p16INK4a (p16), IL-6, MMP-3 and mRFP RNA expression levels (senescent cells [1]; irradiated p16-3MR mice treated with GCV): returned p16INK4a (p16), IL-6, MMP-3 and mRFP expression levels to those found in the unirradiated control mice
metastatic B16 melanoma cells, Fat (estimated % of total area of fat) (B16 mouse melanoma cells [2]; 18 days after injection): 25%
metastatic B16 melanoma cells, Liver (B16 mouse melanoma cells [2]; 18 days after injection): 7 ± 3.6 nodules
metastatic B16 melanoma cells, Lung (luminescent nodules) (B16 mouse melanoma cells [2]; 18 days after injection, TNTC = too numerous to count): TNTC
B16 cells as detected by luminescence (B16 mouse melanoma cells [2]; irradiated + GCV, day 18): still showed relatively low levels of B16 cells
metastases in distal organs (liver, fat) (B16 mouse melanoma cells [2]; [6]): almost devoid of metastases
primary lung tumors (B16 mouse melanoma cells [2]; [6]): large primary lung tumors were evident
B16 cells as detected by luminescence (B16 mouse melanoma cells [2]; irradiated + GCV, fifteen days after injection): relatively low levels of B16 cells
primary tumors and metastases (B16 mouse melanoma cells [2]; irradiated mice, GCV 25 mg/kg daily for 7 days, 15 days after B16 injection): much smaller primary tumors and many fewer metastases
p16INK4a and mRFP expression in skin biopsies (B16 mouse melanoma cells [3]): low levels of p16INK4a and mRFP expression
tumor diameters (B16 mouse melanoma cells [3]): smaller tumor sizes
growth/size of subcutaneous B16 melanoma tumors (B16 mouse melanoma cells [3]): substantially reduced the size of B16 melanoma tumors; also recorded: much smaller primary tumors

COc1cccc2c1C(=O)c1c(O)c3c(c(O)c1C2=O)C[C@@](O)(C(=O)CO)C[C@@H]3O[C@H]1C[C@H](N)[C@H](O)[C@H](C)O1 [doxorubicin]
mRFP and p16INK4a mRNA in liver, heart, lung, kidney, spleen (senescent cells [4]): higher levels of mRFP and p16INK4a in all tissues
p16INK4a and mRFP expression in skin biopsies (B16 mouse melanoma cells [3]): increased senescence
tumor diameters (B16 mouse melanoma cells [3]): increased tumor sizes
growth/size of subcutaneous B16 melanoma tumors (B16 mouse melanoma cells [3]): stimulated the growth of B16 melanoma cells; also recorded: Tumor growth was increased

O=c1cc(-c2ccc(O)cc2)oc2cc(O)cc(O)c12 [apigenin, 4′,5,7-trihydroxyflavone]
IL-6 secretion (ELISA) (IL-6): capable of suppressing IL-6 secretion
ATP levels (HCA2 human fibroblasts): without altering ATP levels
secretion of SASP factors (fold difference over control) (SASP): suppressed the secretion of several pro-inflammatory cytokines and chemokines, including, for example, TGFA, MCP3, LIF, IFNβ, IL-6, GROA, and IL-2

CC[C@H](C(=O)N1CCCC[C@H]1C(=O)O[C@H](CCc1ccc(OC)c(OC)c1)c1cccc(OCC(=O)NCC(CNC(=O)COc2cccc([C@@H](CCc3ccc(OC)c(OC)c3)OC(=O)[C@@H]3CCCCN3C(=O)[C@@H](CC)c3cc(OC)c(OC)c(OC)c3)c2)CN(C)C)c1)c1cc(OC)c(OC)c(OC)c1 [AP20187]
tumor multiplicity in lungs (tumor numbers) [5]: significantly reduced
